Measurements as given in ChEMBL document CHEMBL5370643, “Discovery of MK-1468: A Potent, Kinome-Selective, Brain-Penetrant Amidoisoquinoline LRRK2 Inhibitor for the Potential Treatment of Parkinson's Disease” (J Med Chem, 2023).
Values belong to the molecule of their own block, whether it stands above or below them.

Legend:
[1] = target: T1, Serine/threonine-protein kinase BRSK1 (Homo sapiens, UniProt Q8TDC3); assay: Inhibition of BRSK1 (unknown origin)
T1 sequence (Q8TDC3 whole entry): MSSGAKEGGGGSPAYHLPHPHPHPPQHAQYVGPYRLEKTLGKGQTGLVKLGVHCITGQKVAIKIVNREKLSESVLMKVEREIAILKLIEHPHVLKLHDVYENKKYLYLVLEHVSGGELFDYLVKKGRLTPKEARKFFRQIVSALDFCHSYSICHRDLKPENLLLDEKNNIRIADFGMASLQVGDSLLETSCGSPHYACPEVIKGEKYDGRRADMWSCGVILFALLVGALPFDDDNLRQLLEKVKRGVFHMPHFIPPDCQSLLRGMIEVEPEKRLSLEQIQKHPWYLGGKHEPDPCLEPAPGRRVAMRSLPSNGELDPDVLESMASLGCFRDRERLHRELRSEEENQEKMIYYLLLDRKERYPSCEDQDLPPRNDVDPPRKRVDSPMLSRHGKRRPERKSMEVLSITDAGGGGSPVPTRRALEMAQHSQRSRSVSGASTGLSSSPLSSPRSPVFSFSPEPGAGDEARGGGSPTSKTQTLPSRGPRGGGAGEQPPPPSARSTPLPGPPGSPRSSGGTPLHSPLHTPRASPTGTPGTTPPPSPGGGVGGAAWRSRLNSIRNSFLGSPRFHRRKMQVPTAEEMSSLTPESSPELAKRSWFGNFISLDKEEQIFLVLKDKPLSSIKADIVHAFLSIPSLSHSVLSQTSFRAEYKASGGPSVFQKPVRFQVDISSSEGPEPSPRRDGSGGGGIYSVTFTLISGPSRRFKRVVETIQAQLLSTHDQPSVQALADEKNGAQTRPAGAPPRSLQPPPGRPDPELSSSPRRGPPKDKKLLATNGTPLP

[2] = target: Leucine-rich repeat serine/threonine-protein kinase 2 (Homo sapiens, UniProt Q5S007, G2019S); assay: Inhibition of recombinant N-terminal GST-fused LRRK2 […] mutant (970 to 2527 residues) (unknown origin) using LRRKtide peptide as substrate assessed as inhibition of substrate phosphorylation preincubated with compound for 15 mins followed by substrate addition and measured after 90 mins in presence of ATP by TR-FRET assay
Chain of Leucine-rich repeat serine/threonine-protein kinase 2 (Q5S007 whole entry G2019S, the tested form may be a part): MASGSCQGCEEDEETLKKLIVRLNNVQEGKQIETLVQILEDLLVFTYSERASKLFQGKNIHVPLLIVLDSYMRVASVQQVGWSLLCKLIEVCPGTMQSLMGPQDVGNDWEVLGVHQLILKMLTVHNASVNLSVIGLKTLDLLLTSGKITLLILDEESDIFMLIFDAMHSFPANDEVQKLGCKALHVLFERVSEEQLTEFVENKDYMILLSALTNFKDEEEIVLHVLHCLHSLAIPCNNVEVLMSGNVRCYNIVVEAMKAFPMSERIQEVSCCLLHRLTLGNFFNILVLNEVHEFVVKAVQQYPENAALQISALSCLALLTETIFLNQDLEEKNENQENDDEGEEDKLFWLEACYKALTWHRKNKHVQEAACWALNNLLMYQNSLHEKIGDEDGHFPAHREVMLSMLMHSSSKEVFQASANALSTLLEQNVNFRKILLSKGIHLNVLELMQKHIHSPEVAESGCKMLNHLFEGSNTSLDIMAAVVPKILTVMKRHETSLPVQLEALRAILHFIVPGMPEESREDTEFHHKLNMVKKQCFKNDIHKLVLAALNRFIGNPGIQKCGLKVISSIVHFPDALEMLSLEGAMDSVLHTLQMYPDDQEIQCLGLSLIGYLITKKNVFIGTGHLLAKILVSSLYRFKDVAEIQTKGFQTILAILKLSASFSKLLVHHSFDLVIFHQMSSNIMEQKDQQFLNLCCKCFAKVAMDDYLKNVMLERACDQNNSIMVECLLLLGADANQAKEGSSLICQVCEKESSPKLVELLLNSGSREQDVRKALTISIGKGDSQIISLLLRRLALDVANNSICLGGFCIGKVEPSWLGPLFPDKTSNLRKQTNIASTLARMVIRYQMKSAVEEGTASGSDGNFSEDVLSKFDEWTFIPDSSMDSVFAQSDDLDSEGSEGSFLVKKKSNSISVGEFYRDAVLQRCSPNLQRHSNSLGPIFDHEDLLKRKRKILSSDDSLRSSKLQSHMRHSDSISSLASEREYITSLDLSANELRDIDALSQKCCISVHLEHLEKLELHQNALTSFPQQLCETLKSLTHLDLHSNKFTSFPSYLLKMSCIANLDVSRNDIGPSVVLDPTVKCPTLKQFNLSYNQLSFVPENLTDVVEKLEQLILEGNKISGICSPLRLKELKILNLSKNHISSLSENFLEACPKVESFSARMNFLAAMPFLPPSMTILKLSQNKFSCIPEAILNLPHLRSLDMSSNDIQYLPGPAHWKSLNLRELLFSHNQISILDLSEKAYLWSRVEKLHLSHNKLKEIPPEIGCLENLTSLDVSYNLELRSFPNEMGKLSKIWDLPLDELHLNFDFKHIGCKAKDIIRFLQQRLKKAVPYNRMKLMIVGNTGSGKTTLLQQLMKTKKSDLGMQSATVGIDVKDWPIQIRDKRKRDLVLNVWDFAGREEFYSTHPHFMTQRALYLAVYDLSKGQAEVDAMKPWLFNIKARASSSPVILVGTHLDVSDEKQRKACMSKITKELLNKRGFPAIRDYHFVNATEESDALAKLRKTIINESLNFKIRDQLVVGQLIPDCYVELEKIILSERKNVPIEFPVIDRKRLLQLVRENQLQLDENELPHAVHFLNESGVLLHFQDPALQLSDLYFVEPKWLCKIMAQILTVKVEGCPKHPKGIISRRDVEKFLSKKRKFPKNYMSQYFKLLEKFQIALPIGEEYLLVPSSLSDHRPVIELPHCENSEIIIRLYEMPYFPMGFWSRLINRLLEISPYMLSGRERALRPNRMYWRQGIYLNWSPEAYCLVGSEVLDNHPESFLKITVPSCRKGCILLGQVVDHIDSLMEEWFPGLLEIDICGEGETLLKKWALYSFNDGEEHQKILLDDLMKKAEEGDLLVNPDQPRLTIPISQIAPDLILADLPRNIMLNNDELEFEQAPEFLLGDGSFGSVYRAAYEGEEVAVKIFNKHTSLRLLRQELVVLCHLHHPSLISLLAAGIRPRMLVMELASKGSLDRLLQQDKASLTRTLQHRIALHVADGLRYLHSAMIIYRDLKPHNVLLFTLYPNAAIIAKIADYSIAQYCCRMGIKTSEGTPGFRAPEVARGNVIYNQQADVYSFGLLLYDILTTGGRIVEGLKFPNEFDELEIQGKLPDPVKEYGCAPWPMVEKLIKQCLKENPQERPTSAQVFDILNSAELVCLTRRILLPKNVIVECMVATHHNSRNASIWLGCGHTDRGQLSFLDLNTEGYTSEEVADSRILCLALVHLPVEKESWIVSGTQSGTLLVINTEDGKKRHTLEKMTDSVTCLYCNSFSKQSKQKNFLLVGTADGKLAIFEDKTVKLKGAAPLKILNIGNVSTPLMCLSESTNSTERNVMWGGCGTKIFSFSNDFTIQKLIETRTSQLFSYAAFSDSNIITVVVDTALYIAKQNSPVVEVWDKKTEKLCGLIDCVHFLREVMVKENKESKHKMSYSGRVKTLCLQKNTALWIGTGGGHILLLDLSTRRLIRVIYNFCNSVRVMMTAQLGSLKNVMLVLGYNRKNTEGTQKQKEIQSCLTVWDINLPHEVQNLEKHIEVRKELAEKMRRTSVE

[3] = target: Leucine-rich repeat serine/threonine-protein kinase 2 (Homo sapiens) (UniProt Q5S007); assay: Inhibition of LRRK2 in human PBMC using LRRKtide peptide as substrate assessed as Ser935 dephosphorylation preincubated with compound for 15 mins followed by substrate addition and measured after 90 mins in presence of ATP by TR-FRET assay; type: cell-based; settings: time 105.0 min
Chain of Leucine-rich repeat serine/threonine-protein kinase 2 (Homo sapiens) (Q5S007 whole entry): as the sequence (Q5S007 whole entry G2019S, the tested form may be a part) above, with S2019G counted along it

[4] = MRT in Wistar-Han rat at 0.1 mg/kg, iv administered as cassette dose by LC-MS/MS analysis; type: ADME, organism-based; settings: in vivo
[5] = Total clearance in Wistar-Han rat at 0.1 mg/kg, iv administered as cassette dose by LC-MS/MS analysis; type: ADME, organism-based; settings: in vivo
[6] = Intrinsic clearance in Wistar-Han rat at 0.1 mg/kg, iv administered as cassette dose by LC-MS/MS analysis; type: ADME, organism-based; settings: in vivo
rat Mdrl1 P-gp = assay: Efflux ratio of apparent permeability across basolateral to apical over apical to basolateral side in MDCK cells transfected with rat Mdrl1 P-gp incubated for 3 hrs by LC-MS/MS analysis; settings: dog, MDCK-MDR1
mouse BCRP = assay: Efflux ratio of apparent permeability across basolateral to apical over apical to basolateral side in MDCK-II cells transfected with mouse BCRP incubated for 3 hrs by LC-MS/MS analysis; settings: dog
rat Mdr1a P-gp = assay: Apparent permeability across apical to basolateral side in LLC-PK1 cells transfected with rat Mdr1a P-gp incubated for 3 hrs by LC-MS/MS analysis; settings: pig
[7] = Mutagenicity in Salmonella typhimurium TA100 at 30 to 5000 ug/plate incubated for 48 hrs in presence of Wistar-Han rat S9 fraction by Ames test; type: toxicity, subcellular; settings: salmonella enterica subsp. enterica serovar typhimurium, s9, 48 h
[8] = Mutagenicity in Salmonella typhimurium TA1535 at 30 to 5000 ug/plate incubated for 48 hrs in absence of Wistar-Han rat S9 fraction by Ames test; type: toxicity; settings: salmonella enterica subsp. enterica serovar typhimurium, s9, 48 h
[9] = Mutagenicity in Salmonella typhimurium TA1535 at 30 to 5000 ug/plate incubated for 48 hrs in presence of Wistar-Han rat S9 fraction by Ames test; type: toxicity, subcellular; settings: salmonella enterica subsp. enterica serovar typhimurium, s9, 48 h
[10] = Mutagenicity in Salmonella typhimurium TA98 at 30 to 5000 ug/plate incubated for 48 hrs in absence of Wistar-Han rat S9 fraction by Ames test; type: toxicity; settings: salmonella enterica subsp. enterica serovar typhimurium, s9, 48 h
[11] = Mutagenicity in Salmonella typhimurium TA100 at 30 to 5000 ug/plate incubated for 48 hrs in absence of Wistar-Han rat S9 fraction by Ames test; type: toxicity; settings: salmonella enterica subsp. enterica serovar typhimurium, s9, 48 h
[12] = Mutagenicity in Salmonella typhimurium TA98 at 30 to 5000 ug/plate incubated for 48 hrs in presence of Wistar-Han rat S9 fraction by Ames test; type: toxicity, subcellular; settings: salmonella enterica subsp. enterica serovar typhimurium, s9, 48 h
[13] = Unbound brain-to-plasma concentration ratio in iv dosed Wistar-Han rat administered as cassette dose by LC-MS/MS analysis; type: ADME, organism-based; settings: read-out: K(p,uu,brain)
[14] = Total clearance in Beagle dog at 0.05 mg/kg, iv administered as cassette dose by LC-MS/MS analysis; type: ADME, organism-based, Canis lupus familiaris; settings: in vivo
[15] = MRT in Wistar-Han rat at 2 mg/kg, iv measured after 24 hrs by LC-MS/MS analysis; type: ADME, organism-based; settings: in vivo
[16] = Total clearance in Wistar-Han rat at 2 mg/kg, iv measured after 24 hrs by LC-MS/MS analysis; type: ADME, organism-based; settings: in vivo
[17] = Intrinsic clearance in Wistar-Han rat at 2 mg/kg, iv measured after 24 hrs by LC-MS/MS analysis; type: ADME, organism-based; settings: in vivo
[18] = Intrinsic clearance in Beagle dog at 0.05 mg/kg, iv administered as cassette dose by LC-MS/MS analysis; type: ADME, organism-based, Canis lupus familiaris; settings: in vivo
[19] = Oral bioavailability in Wistar-Han rat at 10 mg/kg measured after 24 hrs by LC-MS/MS analysis; type: ADME, organism-based; settings: in vivo
[20] = MRT in Beagle dog at 0.05 mg/kg, iv administered as cassette dose by LC-MS/MS analysis; type: ADME, organism-based, Canis lupus familiaris; settings: in vivo
[21] = Lipophilicity, logD of compound at pH 7 by HT-HPLC/DAD analysis; type: physicochemical; settings: buffer
[22] = target: Voltage-gated inwardly rectifying potassium channel KCNH2 (Homo sapiens, UniProt Q12809); assay: Inhibition of hERG expressed in CHO cells by QPatch voltage clamp assay
Chain of Voltage-gated inwardly rectifying potassium channel KCNH2 (Q12809 whole entry, the tested form may be a part): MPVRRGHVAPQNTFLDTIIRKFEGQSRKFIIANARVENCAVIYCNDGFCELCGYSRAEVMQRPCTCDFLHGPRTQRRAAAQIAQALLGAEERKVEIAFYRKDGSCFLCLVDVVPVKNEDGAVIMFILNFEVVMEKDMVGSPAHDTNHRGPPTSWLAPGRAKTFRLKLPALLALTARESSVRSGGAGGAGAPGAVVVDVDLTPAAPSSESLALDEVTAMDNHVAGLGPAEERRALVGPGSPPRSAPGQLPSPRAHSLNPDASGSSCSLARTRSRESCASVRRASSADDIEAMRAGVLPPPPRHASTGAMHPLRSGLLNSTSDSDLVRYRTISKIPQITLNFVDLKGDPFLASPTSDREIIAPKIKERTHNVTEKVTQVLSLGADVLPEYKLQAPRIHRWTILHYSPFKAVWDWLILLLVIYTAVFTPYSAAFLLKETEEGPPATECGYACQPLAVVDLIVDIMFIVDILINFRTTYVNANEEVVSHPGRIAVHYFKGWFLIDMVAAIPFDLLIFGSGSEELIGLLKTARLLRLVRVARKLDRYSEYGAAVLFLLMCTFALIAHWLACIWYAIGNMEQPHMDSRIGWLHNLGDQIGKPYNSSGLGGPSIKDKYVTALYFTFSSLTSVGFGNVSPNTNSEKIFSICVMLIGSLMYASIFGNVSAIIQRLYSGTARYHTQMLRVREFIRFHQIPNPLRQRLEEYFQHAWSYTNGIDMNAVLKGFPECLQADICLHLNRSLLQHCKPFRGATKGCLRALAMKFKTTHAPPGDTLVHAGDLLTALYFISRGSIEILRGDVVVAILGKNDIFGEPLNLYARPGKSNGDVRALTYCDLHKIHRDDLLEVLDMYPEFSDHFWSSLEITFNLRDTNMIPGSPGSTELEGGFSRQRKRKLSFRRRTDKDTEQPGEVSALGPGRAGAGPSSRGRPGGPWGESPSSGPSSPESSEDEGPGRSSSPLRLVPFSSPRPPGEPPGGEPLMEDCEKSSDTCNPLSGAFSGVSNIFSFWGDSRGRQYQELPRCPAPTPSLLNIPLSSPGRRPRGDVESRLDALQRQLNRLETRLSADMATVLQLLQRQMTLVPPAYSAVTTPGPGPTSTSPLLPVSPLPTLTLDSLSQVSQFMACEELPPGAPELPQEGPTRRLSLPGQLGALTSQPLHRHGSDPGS

[23] = Drug metabolism in rat assessed as oxidative metabolism of piperazine-THF alcohol lysine region fragment by MetID analysis; type: ADME
[24] = Drug metabolism in dog assessed as amide hydrolysis mediated metabolite formation by MetID analysis; type: ADME, Canis lupus familiaris
[25] = Drug metabolism in dog assessed as oxidative metabolism of piperazine-THF alcohol lysine region fragment by MetID analysis; type: ADME, Canis lupus familiaris
[26] = Drug metabolism in rat assessed as amide hydrolysis mediated metabolite formation by MetID analysis; type: ADME
[27] = Oral bioavailability in Wistar-Han rat at 5 mg/kg measured after 24 hrs by LC-MS/MS analysis; type: ADME, organism-based; settings: in vivo

Structure (SMILES): C[C@@]1(N2CCN(c3cc4cc(N)ncc4cc3Cl)CC2)COC[C@@H]1O
Activity [7]: Non-Toxic
Activity [8]: Non-Toxic
Activity [9]: Non-Toxic
Activity [10]: Non-Toxic
Activity [11]: Non-Toxic
Activity [12]: Non-Toxic

Structure (SMILES): Cn1ccc([C@H]2C[C@@H]2C(=O)Nc2cc3cc(C4CCN([C@]5(C)COC[C@@H]5O)CC4)c(Cl)cc3cn2)n1
fIC50 [3]: 1.2 nM
MRT [4]: 2.6 h
Kp uu [13]: 0.3
clearance [5]: 21 mL/min/kg
CL [6]: 731 mL/min/kg

Structure (SMILES): C[C@@]1(N2CCC(c3cc4cc(N)ncc4cc3Cl)CC2)COC[C@@H]1O
Activity [7]: Non-Toxic
Activity [8]: Non-Toxic
Activity [9]: Non-Toxic
Activity [10]: Non-Toxic
Activity [11]: Non-Toxic
Activity [12]: Non-Toxic

Structure (SMILES): Cn1cc(C(=O)Nc2cc3cc(C4CCN([C@]5(C)COC[C@@H]5O)CC4)c(Cl)cc3cn2)cn1
IC50 [2]: 0.8 nM
fIC50 [3]: 112 nM

Structure (SMILES): CC(C)(O)[C@H]1C[C@H]1C(=O)Nc1cc2cc(C3CCN([C@]4(C)COC[C@@H]4O)CC3)c(Cl)cc2cn1
efflux ratio at 3 h (rat Mdrl1 P-gp): 9
IC50 [2]: < 0.08 nM
MRT [4]: 3.1 h
clearance [5]: 22 mL/min/kg
Papp A→B at 3 h (rat Mdr1a P-gp): 33 ×10⁻⁶ cm/s
CL [6]: 276 mL/min/kg

Structure (SMILES): Cn1cc([C@H]2C[C@@H]2C(=O)Nc2cc3cc(C4CCN([C@]5(C)COC[C@@H]5O)CC4)c(Cl)cc3cn2)cn1
efflux ratio at 3 h (rat Mdrl1 P-gp): 12
IC50 [2]: 0.5 nM
fIC50 [3]: 0.28 nM
MRT [4]: 4.4 h
clearance [5]: 17 mL/min/kg
Papp A→B at 3 h (rat Mdr1a P-gp): 29 ×10⁻⁶ cm/s
IC50 [22]: 9500 nM
CL [6]: 302 mL/min/kg

Structure (SMILES): C[C@@]1(N2CCC(c3cc4cc(NC(=O)[C@H]5C[C@@H]5c5ccccn5)ncc4cc3Cl)CC2)COC[C@@H]1O
Drug metabolism [23]: Metabolite_Detected
MRT [15]: 5.6 h
clearance [16]: 13 mL/min/kg
Drug metabolism [24]: Metabolite_Detected
CL [17]: 341 mL/min/kg
Drug metabolism [25]: Metabolite_Detected
fIC50 [3]: 0.2 nM
Drug metabolism [26]: Metabolite_Notdetected
bioavailability [27]: 46%

The next lines start with results.

IC50 [1]: 43 nM
IC50 [2]: < 0.08 nM
fIC50 [3]: 4.5 nM
MRT [4]: 3.2 h
clearance [5]: 12 mL/min/kg
CL [6]: 684 mL/min/kg
Structure (SMILES): C[C@@]1(N2CCC(c3cc4cc(NC(=O)C5CC5)ncc4cc3Cl)CC2)COC[C@@H]1O

efflux ratio at 3 h (rat Mdrl1 P-gp): 0.9
IC50 [2]: 3 nM
efflux ratio at 3 h (mouse BCRP): 1.1
fIC50 [3]: 168 nM
MRT [4]: 3.3 h
clearance [5]: 10 mL/min/kg
Papp A→B at 3 h (rat Mdr1a P-gp): 34 ×10⁻⁶ cm/s
CL [6]: 429 mL/min/kg
Structure (SMILES): CC1(N2CCC(c3cc4cc(NC(=O)C5CC5)ncc4cc3Cl)CC2)COC1

clearance [14]: 18 mL/min/kg
MRT [15]: 2.7 h
clearance [16]: 35 mL/min/kg
CL [17]: 875 mL/min/kg
CL [18]: 422 mL/min/kg
bioavailability [19]: 67%
MRT [20]: 12 h
Structure (SMILES): C[C@@]1(N2CCC(c3cc4cc(NC(=O)[C@H]5CC56CCOCC6)ncc4cc3Cl)CC2)COC[C@@H]1O

clearance [14]: 10 mL/min/kg
logD [21]: 3.6
CL [18]: 76 mL/min/kg
IC50 [2]: < 0.08 nM
fIC50 [3]: 12 nM
MRT [4]: 3.2 h
clearance [5]: 31 mL/min/kg
MRT [20]: 9.8 h
CL [6]: 241 mL/min/kg
Structure (SMILES): Cc1cc2cnc(NC(=O)C3CC34CC4)cc2cc1C1CCN([C@]2(C)COC[C@@H]2O)CC1 (some centres not stated)
IC50 [22]: 4800 nM

MRT [4]: 2.1 h
Kp uu [13]: 0.3
clearance [5]: 41 mL/min/kg
CL [6]: 840 mL/min/kg
Structure (SMILES): COC(C)(C)[C@@H]1C[C@H]1C(=O)Nc1cc2cc(C3CCN([C@]4(C)COC[C@@H]4O)CC3)c(Cl)cc2cn1
